Measurements reported in patent US20180125993A1 (BEIJING COTIMES BIOTECH COMPANY LIMITED, priority 2014, published 2018).
Marks after values point to notes of the source that are not given here.

What was measured:
H2122 = experiment: Human lung cancer H2122 subcutaneous model (Day 38 after treatment); details: for Tumor regression: treatment groups
Protocol: The bodyweight and major/minor axis of the mice were measured twice a week, and the tumor volumes were calculated using the formula: Tumor volume=1/2×major axis×minor axis. […] “T” represents average tumor volume of the experimental group (cm^3), and “C” represents average tumor volume of the control group (cm^3). The animals were monitored at all times. The bodyweight and major/minor axis or mice were measured twice a week. When the experiments were concluded, mice were sacrificed and tumors were extracted and weighted.
Tumor volumes were represented with average±standard error. Data analysis was done using Spss16.0, One-Way ANOVA, LSD (homogeneity of variance) or Dunnett T3 (non-homogeneity of variance). […] P<0.05 represents significant difference.

Colo205 = experiment: Human colon cancer Colo205 subcutaneous model (Day 28 after treatment); assay type: in vivo, nude mice; details: for TGI calculated using the tumor volume / TGI calculated using the tumor weights: repeated experiment
Protocol: Tumor cells (i.e., MIA-PaCa-2, WiDr, H2122, colo205) were inoculated in nude mice's flank at 5×10^6 cells per mouse. The mice were grouped when the average volume of tumors reached about 100˜200 mm^3. “QW”=weekly dose. “Q3d”=dosed every third day. “BiW”=biweekly.
The bodyweight and major/minor axis of the mice were measured twice a week, and the tumor volumes were calculated using the formula: Tumor volume=1/2×major axis[…]. […] “T” represents average tumor volume of the experimental group (cm^3), and “C” represents average tumor volume of the control group (cm^3). The animals were monitored at all times. The bodyweight and major/minor axis or mice were measured twice a week.
Tumor volumes were represented with average±standard error. […] P<0.05 represents significant difference.

7402 = experiment: In vitro cytotoxic sensitivity of CTB006; assay type: cell-based, human; details: 7402, Liver cancer
[1] = molecular target: T1, DcR2-His (recombinant human TRAIL R4/TNFRSF10D) (Homo sapiens, UniProt Q9UBN6); experiment: Binding specificity by chemiluminescent enzyme immunoassay (CLEIA); details: antibody 200, 40 and 8 ng/mL; 1 hour, 37° C.
T1 construct: His; purchased Sino Biological
T1 sequence (Q9UBN6 56-386): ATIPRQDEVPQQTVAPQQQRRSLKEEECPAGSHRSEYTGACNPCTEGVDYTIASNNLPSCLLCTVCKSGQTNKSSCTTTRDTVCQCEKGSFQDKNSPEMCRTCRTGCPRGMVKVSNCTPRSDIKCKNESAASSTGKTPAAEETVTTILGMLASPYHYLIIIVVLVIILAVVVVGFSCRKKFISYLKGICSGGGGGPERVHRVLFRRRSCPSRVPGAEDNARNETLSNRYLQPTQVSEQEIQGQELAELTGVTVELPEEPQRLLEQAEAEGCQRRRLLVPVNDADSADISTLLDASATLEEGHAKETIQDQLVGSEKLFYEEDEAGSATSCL
Protocol: (§1) The binding specificity of HuCTB006 was evaluated by chemiluminescent enzyme immunoassay (CLEIA).
(§2) HuCTB006 was diluted into 200, 40 and 8 ng/mL and then added to the wells. After 1 hour incubation in 37° C., the plate was washed. The binding of HuCTB006 with immobilized antigens was detected with HRP labeled secondary antibody and a substrate solution.

[2] = molecular target: T2, DcR1-His (recombinant human TRAIL R3/TNFRSF10C) (Homo sapiens, UniProt O14798); experiment: as above; details: antibody 200, 40 and 8 ng/mL; 1 hour, 37° C.
T2 construct: His; purchased Novoprotein Science
T2 sequence (O14798 26-236): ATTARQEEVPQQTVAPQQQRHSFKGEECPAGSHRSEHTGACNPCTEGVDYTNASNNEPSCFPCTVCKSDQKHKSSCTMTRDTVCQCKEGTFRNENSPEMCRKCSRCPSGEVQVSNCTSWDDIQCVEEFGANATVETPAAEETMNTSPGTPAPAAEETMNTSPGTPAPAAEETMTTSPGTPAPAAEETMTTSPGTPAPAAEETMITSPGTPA
Protocol: as §1, §2

[3] = molecular target: T3, OPG-His (recombinant human osteroprotegerin/TNFRSF11B) (Homo sapiens, UniProt O00300); experiment: as above; details: antibody 200, 40 and 8 ng/mL; 1 hour, 37° C.
T3 construct: His; purchased Wuxi Pharmatech Co. Ltd
T3 sequence (O00300 22-401): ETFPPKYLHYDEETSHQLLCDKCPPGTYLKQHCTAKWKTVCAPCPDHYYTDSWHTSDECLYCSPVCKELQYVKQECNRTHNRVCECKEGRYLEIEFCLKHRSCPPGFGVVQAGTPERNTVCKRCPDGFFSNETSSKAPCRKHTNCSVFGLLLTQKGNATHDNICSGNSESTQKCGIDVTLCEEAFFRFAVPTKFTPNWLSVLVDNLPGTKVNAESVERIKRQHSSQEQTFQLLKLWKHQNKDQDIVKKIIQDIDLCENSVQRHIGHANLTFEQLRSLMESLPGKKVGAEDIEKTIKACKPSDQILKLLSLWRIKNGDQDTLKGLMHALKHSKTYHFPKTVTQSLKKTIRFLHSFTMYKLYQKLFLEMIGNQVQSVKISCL
Protocol: as §1, §2

BT474 = experiment: In vitro cytotoxic sensitivity of CTB006; assay type: cell-based, human; details: BT474, Breast cancer
[4] = HuCTB006 0.2 mg/kg i.v. QW × 6W
[5] = HuCTB006 0.2 mg/kg i.v. QW × 6W, 0.2 mg/kg
[6] = HuCTB006 0.2 mg/kg i.v. QW × 6W, listed as HUCTB006, 0.2 mg/kg
[7] = HuCTB006 0.6 mg/kg i.v. QW × 6W
[8] = HuCTB006 0.6 mg/kg i.v. QW × 6W, 0.6 mg/kg
[9] = HuCTB006 0.6 mg/kg i.v. QW × 6W, listed as HUCTB006, 0.6 mg/kg
[10] = HuCTB006 1.8 mg/kg i.v. QW × 6W
[11] = HuCTB006 1.8 mg/kg i.v. QW × 6W, 1.8 mg/kg
[12] = HuCTB006 1.8 mg/kg i.v. QW × 6W, listed as HUCTB006, 1.8 mg/kg
[13] = HuCTB006 5.4 mg/kg i.v. QW × 6W
[14] = HuCTB006 5.4 mg/kg i.v. QW × 6W, 5.4 mg/kg
[15] = HuCTB006 5.4 mg/kg i.v. QW × 6W, listed as HUCTB006, 5.4 mg/kg
[16] = repeated experiment, HuCTB006 0.2 mg/kg
[17] = repeated experiment, HuCTB006 0.6 mg/kg
[18] = repeated experiment, HuCTB006 1.8 mg/kg
[19] = repeated experiment, HuCTB006 5.4 mg/kg
[20] = HuCTB006 0.2 mg/kg i.v. QW × 4W
[21] = HuCTB006 0.2 mg/kg i.v. QW × 4W, 0.2 mg/kg
[22] = HuCTB006 0.6 mg/kg i.v. QW × 4W
[23] = HuCTB006 1.8 mg/kg i.v. QW × 4W
[24] = HuCTB006 5.4 mg/kg i.v. QW × 4W

HuCTB006: Monospecific humanized chimeric monoclonal antibody directed to TRAIL-R2 receptor; heavy chain SEQ ID NO: 14, light chain SEQ ID NO: 12
T/C % (Calculated using tumor volumes) (H2122; [4]): 92.13%
Time of tumor volume changed significantly (H2122; [4]): 8
Tumor Volume Mean ± SEM (H2122; [4]): 1.85 ± 0.15 cm^3
Tumor weight Mean ± SEM (H2122; [4]): 1.54 ± 0.09 g
TGI (Calculated using tumor volumes) (H2122; [5]): 11.56%
TGI (Calculated using tumor weight) (H2122; [5]): 6.45%
TGI (Calculated using tumor volumes) (H2122; [6]): 11.56%
TGI (Calculated using tumor weight) (H2122; [6]): 6.45%^5
T/C % (Calculated using tumor volumes) (H2122; [7]): 50.75%
Tumor Volume Mean ± SEM (H2122; [7]): 1.02 ± 0.31 cm^3
Tumor weight Mean ± SEM (H2122; [7]): 0.89 ± 0.29 g
TGI (Calculated using tumor volumes) (H2122; [8]): 51.06%
TGI (Calculated using tumor weight) (H2122; [8]): 45.66%
TGI (Calculated using tumor volumes) (H2122; [9]): 51.06%^3
TGI (Calculated using tumor weight) (H2122; [9]): 45.66%^4
T/C % (Calculated using tumor volumes) (H2122; [10]): 6.46%
Tumor Volume Mean ± SEM (H2122; [10]): 0.16 ± 0.16 cm^3
Tumor weight Mean ± SEM (H2122; [10]): 0.12 ± 0.12 g
TGI (Calculated using tumor volumes) (H2122; [11]): 92.08%
TGI (Calculated using tumor weight) (H2122; [11]): 92.48%
TGI (Calculated using tumor volumes) (H2122; [12]): 92.08%**^2
TGI (Calculated using tumor weight) (H2122; [12]): 92.48%*
T/C % (Calculated using tumor volumes) (H2122; [13]): 5.54%
Tumor Volume Mean ± SEM (H2122; [13]): 0.18 ± 0.18 cm^3
Tumor weight Mean ± SEM (H2122; [13]): 0.19 ± 0.18 g
TGI (Calculated using tumor volumes) (H2122; [14]): 91.23%
TGI (Calculated using tumor weight) (H2122; [14]): 8.62%
TGI (Calculated using tumor volumes) (H2122; [15]): 91.23%**
TGI (Calculated using tumor weight) (H2122; [15]): 88.62%*^1
Bodyweights (H2122; Taxol group, HuCTB006 0.2 mg/kg group): decreased, but were maintained at an acceptable level
Tumor regression (H2122; first experiment): some animals of HuCTB006 treatment groups showed tumor regression
Tumor regression (H2122; repeated experiment): some animals of CTB006 treatment groups showed tumor regression
TGI (Calculated using tumor volume) (H2122; [16]): 35.26%
TGI (Calculated using tumor weight) (H2122; [16]): 32.46%
TGI (Calculated using tumor volume) (H2122; [17]): 67.66%
TGI (Calculated using tumor weight) (H2122; [17]): 65.94%
TGI (Calculated using tumor volume) (H2122; [18]): 60.12%
TGI (Calculated using tumor weight) (H2122; [18]): 64.21%
TGI (Calculated using tumor volume) (H2122; [19]): 91.69%
TGI (Calculated using tumor weight) (H2122; [19]): 92.25%
T/C % (Calculated using tumor volume) (Colo205; [20]): 66.90%
Time of tumor volume changed significantly (Colo205; [20]): 10 Days after first treatment
Tumor Volume Mean ± SEM (Colo205; [20]): 1.24 ± 0.20 cm^3
Tumor weight Mean ± SEM (Colo205; [20]): 0.84 ± 0.14 g
TGI (Calculated using tumor volume) (Colo205; [21]): 35.62%
TGI (Calculated using tumor weight) (Colo205; [21]): 33.30%
T/C % (Calculated using tumor volume) (Colo205; [22]): 14.41%
Tumor Volume Mean ± SEM (Colo205; [22]): 0.29 ± 0.13 cm^3
Tumor weight Mean ± SEM (Colo205; [22]): 0.20 ± 0.10 g
T/C % (Calculated using tumor volume) (Colo205; [23]): 19.91%
Tumor Volume Mean ± SEM (Colo205; [23]): 0.38 ± 0.16 cm^3
Tumor weight Mean ± SEM (Colo205; [23]): 0.23 ± 0.12 g
T/C % (Calculated using tumor volume) (Colo205; [24]): 14.80%
Time of tumor volume changed significantly (Colo205; [24]): 7~10^2 Days after first treatment
Tumor Volume Mean ± SEM (Colo205; [24]): 0.28 ± 0.10 cm^3
Tumor weight Mean ± SEM (Colo205; [24]): 0.15 ± 0.07 g
Bodyweights (Colo205; all HuCTB006 treatment groups): did not show any notably changes
Tumor regression (Colo205; first experiment, treatment groups): four animals of HuCTB006 treatment groups showed tumor regression
TGI calculated using the tumor volume (Colo205; HuCTB006 0.2 mg/kg): 56.16%
TGI calculated using the tumor weights (Colo205; HuCTB006 0.2 mg/kg): 58.68%
TGI calculated using the tumor volume (Colo205; HuCTB006 0.6 mg/kg): 79.75%
TGI calculated using the tumor weights (Colo205; HuCTB006 0.6 mg/kg): 82.34%
TGI calculated using the tumor volume (Colo205; HuCTB006 1.8 mg/kg): 93.65%
TGI calculated using the tumor weights (Colo205; HuCTB006 1.8 mg/kg): 94.33%
TGI calculated using the tumor volume (Colo205; HuCTB006 5.4 mg/kg): 87.12%
TGI calculated using the tumor weights (Colo205; HuCTB006 5.4 mg/kg): 89.90%
In vitro cytotoxic sensitivity of CTB006 7402: Non-responder
cross-reaction with coated antigen [1]: no cross-reaction
cross-reaction with coated antigen [2]: no cross-reaction
cross-reaction with coated antigen [3]: no cross-reaction
In vitro cytotoxic sensitivity of CTB006 (BT474): Non-responder
